According to PubChem BioAssay AID2060625 (Molecular Pharmacology Branch, DTP, NCI, 2025):
pIC50: −log10 of the molar value.

System: 186277-243-T-J2-PDC spheroids with HUVEC/MSC, viability
Experiment: Anticancer human tumor 186277-243-T-J2-PDC patient-derived colon adenocarcinoma cell line growth inhibition [CLK]
Conditions: for pIC50: curve of first compound; for viability, T/C: stronger effect = lower value
Description: A high-throughput screen of multi-cell type tumor spheroids was designed to identify active combinations of […] and targeted small molecules. Complex spheroids include a stromal component modeled by human endothelial cells (HUVEC) and fibroblasts modeled by human mesenchymal stem cells (MSCs). The concentration ranges selected for each drug and investigational agent were based upon clinically achievable concentrations if the clinical Cmax of the agent was known.
Compounds. The drugs and investigational agents: cirtuvivint (SM08502; NSC835563), CC-671 (NSC850746), vemurafenib (NSC761431), tapotoclax (NSC804041), sotorasib (NSC818433), adagrasib (NSC831453), MRTX-1133 (NSC836407), BAY2416964 (NSC825713), copanlisib (NSC816437), inavolisib (NSC800729), abemaciclib (NSC768073), osimertinib (NSC779217), entinostat (NSC756642), eltanexor (KPT-8602, NSC794443), venetoclax (NSC766270), ceralasertib (NSC777638), bortezomib (NSC756655), olaparib (NSC753686), talazoparib (NSC767125), alisertib (NSC759677), peposertib (NSC802822), gemcitabine (NSC613327), 5-fluorouracil (NSC19893), SN-38 (NSC673596), oxaliplatin (NSC266046), paclitaxel (NSC125973), and doxorubicin (NSC123127), were obtained from the National Cancer Institute (NCI) Developmental Therapeutics Program Chemical Repository. The FDA-approved anticancer drug set is available from the Developmental Therapeutics Program at https://dtp.cancer.gov/organization/dscb/obtaining/available plates.htm. […] The stock solutions were prepared in dimethyl sulfoxide (DMSO, Sigma-Aldrich, St. Louis, MO, cat. D2650), except for the platinum complexes which were prepared in saline (Quality Biological, Gaithersburg, MD, cat. 114-055-101), at 800-fold the tested concentration and stored at -70 degrees C prior to their use. All drugs and investigational agents were tested over a range starting from a high concentration at or near the clinical Cmax and decreasing in half-log increments. If the clinical Cmax for an agent had not been determined, the highest concentration tested was 10 microM.
Cell Culture. All cells were maintained in an incubator at 37 degrees C and 5% CO2 with 95% humidity. The PDC lines were cultured according to standard operating procedures established by the NCI PDMR. Briefly, all PDCs were thawed and cultured in Matrigel-coated flasks prepared with a working solution of 1X Ham's F-12 nutrient mix, without supplementation (Invitrogen, Waltham, MA, cat. 11765054), 100 U/mL penicillin-streptomycin (Invitrogen, cat. 15140122), and 2.5% Matrigel (Corning Inc., Corning, NY, cat. 354248) for the first three passages. The 947758-054-R-J2-PDC line was cultured in 6B/Colon 1A media, which includes advanced DMEM/F-12 (Thermo Fisher Scientific, cat. 12634028), 10 mM HEPES (Thermo Fisher Scientific, cat. 15630080), 1X GlutaMAX supplement (Thermo Fisher Scientific, cat. 35050061), 0.1 mg/mL primocin (InvivoGen, cat. ant-pm-2), 10% defined fetal bovine serum, heat inactivated (HyClone Laboratories Inc., cat. SH30070.03HI), 1.25 mM N-Acetyl-L-cysteine (Sigma-Aldrich, cat. A9165), 10 mM nicotinamide (Sigma-Aldrich, cat. N0636), 1X B-27 supplement (Thermo Fisher Scientific, cat. 17504044), 1X N-2 supplement (Thermo Fisher Scientific, cat. 17502048), and 10 microM Y-27632 dihydrochloride (Tocris Bioscience, cat. 1254). The 876862-298-R-J1-PDC was cultured in 6E media, which includes all 6B/Colon 1A media components plus 50% L-WRN conditioned media (ATCC, cat. CRL-3276), 50 ng/mL recombinant human EGF recombinant protein (hEGF; Thermo Fisher Scientific, cat. PHG0311), 10 ng/mL recombinant human fibroblast growth factor 10 (hGFG-10; PeproTech, cat. 100-26), 1 ng/mL recombinant human fibroblast growth factor 2 (hFGF-2; PeproTech, cat. 100-18B), and 1 µM prostaglandin E2 (PGE2; Tocris, cat. 2296). The 227483-062-R1-J1-PDC line was cultured in Panc media, containing all 6E components except hFGF-2, with the addition of 500 nM SB-431542 (Selleckchem, cat. S1067) and 10 nM gastrin (Tocris, cat. 3006). […]
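Also: compound exposure lasted seven days before readout.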
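For viability, T/C in this document: 100% = DMSO vehicle control wells.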

CC(CO)NC(=O)c1cc(-c2ccc(Cl)cc2)nn(-c2cnn(C)c2)c1=O (configuration not stated) + CNC(=O)c1ccc(Nc2nc(OC3CCCC3)c3c(-c4ccc5nc(C)oc5c4)c[nH]c3n2)c(OC)c1 gave a pIC50 (second compound 0.0316 µM) of less than 5.00, a pIC50 (second compound 0.1 µM) of less than 5.00 and a pIC50 (second compound 0.316 µM) greater than 7.50. For the same compound, the pIC50 (second compound 1 µM) was greater than 7.50, the pIC50 (second compound 3.16 µM) was greater than 7.50 and the pIC50 (second compound 10 µM) was greater than 7.50. For the same compound, the viability, T/C (second compound 0.0316 µM, first compound 0.0316 µM) was 109%, the viability, T/C (second compound 0.0316 µM, first compound 0.1 µM) was 99.1% and the viability, T/C (second compound 0.0316 µM, first compound 0.316 µM) was 101%. For the same compound, the viability, T/C (second compound 0.0316 µM, first compound 1 µM) was 84.7%, the viability, T/C (second compound 0.0316 µM, first compound 3.16 µM) was 105% and the viability, T/C (second compound 0.0316 µM, first compound 10 µM) was 120%. It also gave a viability, T/C (second compound 0.1 µM, first compound 0.0316 µM) of 75.8%, a viability, T/C (second compound 0.1 µM, first compound 0.1 µM) of 70.5% and a viability, T/C (second compound 0.1 µM, first compound 0.316 µM) of 72.3%. The viability, T/C (second compound 0.1 µM, first compound 1 µM) was 71.8%, the viability, T/C (second compound 0.1 µM, first compound 3.16 µM) was 74% and the viability, T/C (second compound 0.1 µM, first compound 10 µM) was 81.5%. The viability, T/C (second compound 0.316 µM, first compound 0.0316 µM) was 50%, the viability, T/C (second compound 0.316 µM, first compound 0.1 µM) was 45.4% and the viability, T/C (second compound 0.316 µM, first compound 0.316 µM) was 43.1%. The viability, T/C (second compound 0.316 µM, first compound 1 µM) was 49%, the viability, T/C (second compound 0.316 µM, first compound 3.16 µM) was 49.6% and the viability, T/C (second compound 0.316 µM, first compound 10 µM) was 47.8%. For the same compound, the viability, T/C (second compound 1 µM, first compound 0.0316 µM) was 28.9%, the viability, T/C (second compound 1 µM, first compound 0.1 µM) was 31.6% and the viability, T/C (second compound 1 µM, first compound 0.316 µM) was 29.6%. The viability, T/C (second compound 1 µM, first compound 1 µM) was 32.4%, the viability, T/C (second compound 1 µM, first compound 3.16 µM) was 35.6% and the viability, T/C (second compound 1 µM, first compound 10 µM) was 36%. The viability, T/C (second compound 3.16 µM, first compound 0.0316 µM) was 33.3%, the viability, T/C (second compound 3.16 µM, first compound 0.1 µM) was 30.7% and the viability, T/C (second compound 3.16 µM, first compound 0.316 µM) was 29.1%. The viability, T/C (second compound 3.16 µM, first compound 1 µM) was 31.7%, the viability, T/C (second compound 3.16 µM, first compound 3.16 µM) was 32% and the viability, T/C (second compound 3.16 µM, first compound 10 µM) was 35%. It also gave a viability, T/C (second compound 10 µM, first compound 0.0316 µM) of 32.5%, a viability, T/C (second compound 10 µM, first compound 0.1 µM) of 31.4% and a viability, T/C (second compound 10 µM, first compound 0.316 µM) of 32%. It also gave a viability, T/C (second compound 10 µM, first compound 1 µM) of 31.4%, a viability, T/C (second compound 10 µM, first compound 3.16 µM) of 34.3% and a viability, T/C (second compound 10 µM, first compound 10 µM) of 31.5%.
